From patent publication US10093629B2, “Heterocyclic compounds and their use as retinoid-related orphan receptor (ROR) gamma-T inhibitors” (Takeda Pharmaceutical Company Limited, priority 2014, dated 2018)

Experiments:
[1] = test system: IL-23-induced mouse psoriasis model; test: IL-23-induced mouse psoriasis model; assay type: in vivo; conditions: 3 mg/kg oral twice daily, Balb/c mice, versus the negative control group
Protocol: Effect in an IL-23-Induced Mouse Psoriasis Model
Mouse IL-23 (500 ng/15 μL, R&D) or PBS (15 μL, negative control group) was administered intradermally in the ear of Balb/c mice (Charles River Japan, male, 7 weeks old) 5 times every other days. Seven hr after IL-23 administration at 8 days after the initial administration (final administration), the mice were anesthetized with isoflurane, and ear thickness was measured with calipers. After the ear thickness was measured, the ear was resected, tissue 8 mm in diameter was punched from an area centering on the IL-23 injection site, and the tissue was weighed. The punched ear tissue was cut in half, and one half was immersion-fixed in 10% neutral buffer formalin solution for use in histopathological evaluation. The other half was immersed in RNAlater (QIAGEN) for at least 18 hr for use in an evaluation of the IL-17A mRNA expression level. The test compound was suspended in 0.5% methylcellulose and administered orally twice daily on consecutive days from 30 min before the initial IL-23 administration to 30 min before the final IL-23 administration.
The change in ear thickness in this model was evaluated by calculating the difference in measured thickness between before IL-23 administration and 7 hr after the final IL-23 administration. In addition, the formalin-fixed tissue was embedded and sectioned, then stained with hematoxylin-eosin. The degree of acanthosis was then evaluated qualitatively by microscopy (classified with a score of 0 to 4). RNA extraction from the ear tissue and quantitative PCR were performed as follows. As described above, ear tissue treated with RNAlater (QIAGEN) was homogenized in 350 μL of RLT buffer (RNeasy mini kit, QIAGEN) and treated (55° C., 10 min) with Proteinase K (QIAGEN). Total RNA was then extracted according to the RNeasy mini kit protocol. The RNA thus obtained was reverse transcribed into cDNA using the High-Capacity RNA-to-cDNA kit (Applied Biosystems), and the expression of each gene was measured by real-time PCR (Viia7™, Applied Biosystems). The PCR buffer used was TaqMan Fast Advanced Master Mix (Applied Biosystems), and TaqMan Gene Expression Assays (Applied Biosystems) Mm00439618_m1 (IL-17A) and 4352341E (β-actin) were used to detect the genes. The IL-17A gene expression level was normalized to the β-actin gene expression level, and the percent inhibition of IL-17A gene expression with the test compound was then calculated.
The results (percent inhibition of ear thickness, acanthosis score and IL-17A gene expression with oral administration of the test compound) measured by the above-mentioned method are shown in Table 10.

[2] = test system: IL-17 production in human blood; test: Effect on IL-17 production in human blood; assay type: cell-based; conditions: 72 h; 10 μM test compound; human peripheral blood, IL-23 and Dynabeads stimulation, 3 days; read-out: percent inhibition at 10 μM (IL-17 production)
Outline: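 Heparinized healthy-donor whole blood pre-incubated with compound 30 min at 37° C, then stimulated with IL-23 (added as 100 ng/mL solution) plus Dynabeads Human for 3 days at 37° C. Supernatant IL-17 measured by ELISA; values given as percent inhibition at 10 μM compound.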

[3] = test system: mouse EAE model; test: Mouse EAE model; assay type: in vivo; conditions: 3 mg/kg oral; C57BL/6J mice; integration value of clinical score for 28 days; versus the negative control group
Protocol: Effect in a Mouse EAE Model
. C57BL/6J mice (10 weeks old, female, Charles River Japan) were grouped based on the body weight, and the MOG emulsion was intradermally administered at two point of the joint of dorsal hindlimb so that the dose was 100 μL/site, 200 μL/mouse. In addition, Pertussis toxin (Merck) was intraperitoneally administered twice on the sensitization day and 2 days thereafter in the dose of 400 ng/200 μL/mouse. The body weight was measured twice a week before onset and everyday (excluding holiday) after onset from the sensitization day. The clinical score was evaluated by the following standard scores of 0 to 5 (0: normal, 0.5: partial paralysis of tail, 1: complete paralysis of tail, 2: partial paralysis of hindlimb, 3: paralysis of lower body, 4: partial paralysis of forelimb, 5: paralysis of both forelimbs or death) by observation everyday (excluding holiday) after the beginning of onset.
The percent inhibition of the clinical score of the test compound administration group relative to that of the control group was calculated using integration value of the clinical score for 28 days.
The results (percent inhibition of clinical score with oral administration of the test compound) measured by the above-mentioned method are shown in Table 12.

[4] = test system: T cell-transferred mouse colitis model; test: T cell-transferred mouse colitis model; assay type: in vivo; conditions: 3 mg/kg oral twice daily; SCID mice, 21 days after cell transfer; versus the negative control group
From the text: Effect in a T Cell-Transferred Mouse Colitis Model
Balb/c mice (Charles River Japan, female, 8 weeks old) were euthanized, and the spleens were resected, mashed in mesh, and passed through cell strainer to prepare a suspension of splenic cells. The mononuclear cell fraction in the splenic cells was isolated by density-gradient centrifugation, and subjected to hemolysis treatment with ammonium chloride buffer solution (Immuno-Biological Laboratories, Co., Ltd.). The naive T-cells were purified using CD4+CD62L+ T Cell Isolation Kit II (Miltenyi Biotec). The naive T-cells (2×10^5 cells/mouse) were intravenously transferred into SCIDmice (CLEA Japan, female, 8 weeks old). The compound was suspended in 0.5% methyl cellulose, and the suspension was orally administered twice daily on consecutive days from the same evening of the cell transfer. The mice were blinded 20 days after the cell transfer, and the symptom of the stool on floorcloth under blind was evaluated by scores of 1 to 4 (1: normal, 2: loose stool, 3: diarrhea (formed), 4: diarrhea (unformed)) 21 days after the cell transfer. […] The large intestine was washed with saline, and the weight was measured.
The results (percent inhibition of intestinal tract weight and diarrhea score with oral administration of the test compound) measured by the above-mentioned method are shown in Table 11.

[5] = test system: IL-17A gene expression; test: Effect on IL-23-induced cytokine expression in mice; assay type: in vivo, mouse; conditions: 3 mg/kg oral, 30 min before and 8 hr after IL-23; ear of Balb/c mice; versus the negative control group

SMILES: COc1ccc2c(n1)CCN(C(=O)[C@H]1C[C@@H](CC(=O)O)C1)[C@H]2C(=O)Nc1cc(F)c2c(c1)CCC2(C)C [Example 15, (cis-3-(((5R)-5-((7-fluoro-1,1-dimethyl-2,3-dihydro-1H-inden-5-yl)carbamoyl)-2-methoxy-7,8-dihydro-1,6-naphthyridin-6(5H)-yl)carbonyl)cyclobutyl)acetic acid]
- percent inhibition of acanthosis score [1]: 53%
- percent inhibition of ear thickness [1]: 61%
- percent inhibition of IL-17A expression ([1]; ear tissue): 93%
- inhibition at 10 µM [2]: 94%
- percent inhibition of clinical score [3]: 64%
- percent inhibition of diarrhea score [4]: 81%
- percent inhibition of intestinal tract weight [4]: 58%
- percent inhibition of IL-17A gene expression [5]: 99%
